# Measurements as given in patent US20200362024A1, “BIOLOGICAL MATERIALS AND USES THEREOF” (IMPERIAL INNOVATIONS LIMITED, priority 2009, published 2020).
# B1: tenascin-C siRNA: tenascin-C targeted siRNAs; combination of oligos 1+2 used for cytokine synthesis (nucleic acid)
# sense 1: CGCGAGAACUUCUACCAAATT
# antisense 1: UUUGGUAGAAGUUCUCGCGTC
# sense 2: GGAAUAUGAAUAAAGAAGATT
# antisense 2: UCUUCUUUAUUCAUAUUCCGG
# modifications: chemistry not given here
# notes: tenascin-C targeted siRNAs; combination of oligos 1+2 used for cytokine synthesis
# B2: IL-1: murine IL-1 used to stimulate MEFs (protein, UniProt P10749 118-269, looked up)
# Interleukin-1 beta: VPIRQLHYRLRDEQQKSLVLSDPYELKALHLNGQNINQQVIFSMSFVQGEPSNDKIPVALGLKGKNLYLSCVMKDGTPTLQLESVDPKQYPKKKMEKRFVFNKIEVKSKVEFESAEFPNWYISTSQAEHKPVFLGNNSGQDIIDFTMESVSS
# How the values were obtained:
# [1] = system: primary human macrophages; assay: Cytokine synthesis by primary human macrophages stimulated with FBG peptides; assay type: cell-based; settings: 1 or 20 μM peptide, 24 h (IL8, FIG. 17)
# Description: (§1) After incubation the tissue was pipetted through a nylon mesh into a sterile beaker. The cells were then washed three times in complete medium (RPMI 1640 supplemented with 10% FCS). RA synovial fibroblasts were isolated from the mixed population of RA membrane cells by selection in DMEM (Bio-Whittaker) supplemented with 10% FBS, […], 100 U/ml penicillin, and streptomycin. Human monocytes were isolated from peripheral blood (London Blood Bank) and macrophages were derived from monocytes after differentiation for 4 days with 100 ng/ml of M-CSF.
# (§2) Macrophages were cultured at 1×10^5 cells/well in RPMI 1640 containing 5% (v/v) FBS and 100 U/ml penicillin/streptomycin in 96-well tissue culture plates for 24 h before stimulation. Cells were incubated for 24 h at 37° C. with no addition, 1.0 μM FBG, 1 ng/ml LPS or 1 or 20 μM FBG peptide. Where stated, cells were pre-incubated with 20 μM FBG peptides for 15 min.
# (§3) Supernatants were examined for the presence of the cytokines TNF-α, IL-6, and IL-8 by enzyme-linked immunosorbent assay (ELISA) according to the manufacturer's instructions (R&D systems). Absorbance was read on a spectrophotometric ELISA plate reader (Labsystems Multiscan Biochromic, Vantaa, Finland) and analyzed using the Ascent software program (Thermo Labsystems, Altrincham, UK).
# [2] = system: MyD88 deficient mouse embryonic fibroblasts; assay: Cytokine synthesis in mouse embryonic fibroblasts from MyD88 deficient mice; assay type: cell-based; settings: 24 h; FBG 1 μM, PAM3, LPS, TNFα 100 ng/ml, IL-1 5 ng/ml
# From the text: (§4) Homozygous MyD88 deficient mice on a C57BL/6 background were provided by the Sanger Institute (Cambridge, UK). Age matched congenic inbred wild type C57B/L6 mice were obtained from Charles River (Margate, UK). For isolation of mouse embryo fibroblasts one female aged 8-10 weeks was mated with two males aged 8-10 weeks. For isolation of bone marrow derived macrophages mice were female and between 10-12 weeks of age at the time of experimentation.
# MEFs express high levels of mRNA of all 9 murine TLRs and are specifically and highly responsive to TLR ligand activation. […] Fibroblasts were cultured at 2×10^4 cells/well in DMEM containing 10% (v/v) FBS and 100 U/ml penicillin/streptomycin in 96-well tissue culture plates for 24 hours before stimulation.
# (§5) Cells were incubated for 24 hours at 37° C. with the indicated doses of tenascin-C and recombinant tenascin-C fragments (1.0 μM-1.0 nM). Cells were also stimulated where indicated with LPS (1 ng/ml for human macrophages, 10 ng/ml for human fibroblasts, RA membrane cells and HEKs, 100 ng/ml for MEFS and BMDMs and 10 ng/ml for HEKS), PAM3 (10 ng/ml for human macrophages, human fibroblasts, and HEKs, 100 ng/ml for MEFs and BMDMs), murine IL-1 (5 ng/ml for MEFS) and murine TNF-α (100 ng/ml for MEFS). Unless specifically stated otherwise rough LPS was used for in vitro studies.
# as §3, with “were subsequently” for “were”, “instructions.” for “instructions (R&D systems).”
# [3] = system: TLR2 or TLR4 deficient embryonic fibroblasts and bone marrow derived macrophages; assay: Cytokine synthesis in embryonic fibroblasts and macrophages from TLR2 or TLR4 deficient mice; assay type: cell-based, mouse; settings: 24 h
# From the text: as §4, with “Homozygous TLR2 and TLR4 deficient mice on a C57BL/6 background (an inbred strain of mice with a black coat) were obtained from B&K Universal (Hull, UK) Hoshino (1999) and Takeuchi (1999). Homozygous” for “Homozygous”
# MEFs express high levels of mRNA of all 9 murine TLRs and are specifically and highly responsive to TLR ligand activation. […] MEFs were isolated from d13 embryos harvested from age-matched, pregnant female wild type, TLR2, TLR4 and null mice (as described in Todaro (1963)). Fibroblasts were cultured at 2×10^4 cells/well in DMEM containing 10% (v/v) FBS and 100 U/ml penicillin/streptomycin in 96-well tissue culture plates for 24 hours before stimulation.
# BMDMs were derived by aspirating the femurs of age matched female wild type, TLR2 and TLR4 null mice as described in Butler (1999)) and culturing the cells for 7 days in DMEM, 20% (v/v) FBS, 10 ml/L (v/v) antibiotic-antimycotic solution PSA, 50 μM Mercaptoethanol and 10 ng/ml M-CSF. Macrophages were then cultured at 1×10^5 cells/well in DMEM, 20% (v/v) FBS, 10 ml/L (v/v) antibiotic-antimycotic solution PSA, 50 μM β-Mercaptoethanol in 96-well tissue culture plates for 24 hours before stimulation.
# as §5
# as §3, with “were subsequently” for “were”, “instructions.” for “instructions (R&D systems).”
# [4] = system: primary human macrophages; assay: Cytokine synthesis in primary human macrophages stimulated with tenascin-C or its domains; assay type: cell-based
# Description: Human monocytes were isolated from peripheral blood (London Blood Bank) and macrophages were derived from monocytes after differentiation for 4 days with 100 ng/ml of M-CSF as previously described (Foxwell (1998)).
# (§6) Immediately after isolation, RA membrane cells and macrophages were cultured at 1×10^5 cells/well in RPMI 1640 containing 10% (v/v) FBS and 100 U/ml (Units/ml) penicillin/streptomycin in 96-well tissue culture plates for 24 hours before stimulation. Synovial fibroblasts (used only at either passage number 2 or 3) were cultured at 1×10^4 cells/well in DMEM containing 10% (v/v) FBS and 100 U/ml penicillin/streptomycin in 96-well tissue culture plates for 24 hours before stimulation.
# as §5
# (§7) Where stated, cells were pre-incubated with 10 μg/ml anti-CD14 antibody, 10 μg/ml IL1 receptor antagonist, 10 μg/ml anti-TLR2 antibody, 25 μg/ml anti-TLR4 antibody, 10 or 25 μg/ml isotype control antibody, 25 μg/ml polymyxin B, or 1 μg/ml msbB LPS, for 30 minutes at 37° C. before stimulation. Where stated, recombinant tenascin-C and FBG, and LPS were boiled for 15 minutes before addition to cells
# as §3, with “were subsequently” for “were”, “instructions.” for “instructions (R&D systems).”
# RA synovial fibroblasts [5] = assay: Cytokine synthesis in RA synovial fibroblasts stimulated with tenascin-C, FBG or LPS; assay type: cell-based, human; settings: 24 h
# From the text: RA membrane cells (representing a mixed population of all synovial cell types) were isolated from synovial membranes obtained from patients undergoing joint replacement surgery as previously described (Brennan (1989)). RA synovial fibroblasts were isolated from the mixed population of RA membrane cells as previously described (Brennan (1989)). The study was approved by the local Trust ethics committee (Riverside NHS Research Committee), and waste tissue (synovium after joint replacement surgery) was obtained only after receiving signed informed consent from the patient and anonymyzing the tissue to protect patient identity.
# as §6, §5, §7
# as §3, with “were subsequently” for “were”, “instructions.” for “instructions (R&D systems).”
# RA membrane cells = assay: Blockade of spontaneous cytokine synthesis in RA synovial membrane cultures by FBG peptides; assay type: cell-based, human; settings: for inhibition of cytokine synthesis: highest concentrations, dose dependent (25, 100 or 250 μM, TNF & IL8, FIG. 16); for TNF and IL8 synthesis (inhibition): spontaneous cytokine synthesis, 24 h with peptide
# Description: RA membrane cells (representing a mixed population of all synovial cell types) were isolated from synovial membranes obtained from patients undergoing joint replacement surgery (Brennan (1989)). Synovial membrane tissue was digested in RPMI 1640 (GIBCO) containing 5% fetal calf serum (FCS) (GIBCO), 5 mg/ml collagenase type IV (Sigma) and 0 15 mg/ml DNAse type I (Sigma) and incubated at 37° C. for 2 h.
# Immediately after isolation, RA membrane cells were cultured at 1×10^5 cells/well in RPMI 1640 containing 10% (v/v) FBS and 100 U/ml penicillin/streptomycin in 96-well tissue culture plates. Cells were incubated for 24 h at 37° C. with no addition, buffer control (PBS, 1% BSA, 0.01% NaN3), or with 25 μm, 100 μM or 250 μM of each FBG spanning peptide.
# as §3
# human macrophages = assay: FBG or LPS induced cytokine synthesis in human macrophages pre-incubated with FBG peptides; assay type: cell-based; settings: pre-incubated with 20 μM peptide for 15 min; for FBG mediated cytokine synthesis (block): then 1.0 μM FBG 24 h
# Description: as §1, §2, §3
# [6] = system: human macrophages and RA synovial fibroblasts; assay: Ligand induced cytokine synthesis after pre-incubation with function blocking antibodies or inhibitors; assay type: cell-based; settings: 10 μg/ml IL1 receptor antagonist pre-incubation
# Description: as §5, §7
# as §3, with “were subsequently” for “were”, “instructions.” for “instructions (R&D systems).”
# RA synovial fibroblasts [7] = assay: Cytokine synthesis in RA synovial fibroblasts transfected with tenascin-C siRNA; assay type: cell-based, human; settings: compared to control cells (IL6)
# Description: (§8) Synovial fibroblasts (used only at either passage number 2 or 3) were seeded at a concentration of 5×10^4 cells in a 3.5-cm dish. siRNA was transfected at a final concentration of 10 nM using Lipofectamine 2000 (Invitrogen) for 4 h in serum-free OptiMEM I. Two different siRNAs against human tenascin-C were used (s7069 and s229491) (Applied Biosystems).
# Four hours after transfection, medium was changed with pre-equilibrated Dulbecco's modified Eagle's medium containing 10% FBS (v/v) and cells were incubated for a further 48 h and 72 h. Cells were then stimulated with 10 ng/ml LPS for 24 h at 37° C. Tenascin-C mRNA and protein levels were quantitated by PCR and western blotting respectively. Total RNA was extracted from cells using a QiaAmp RNA Blood mini kit (Qiagen, Germany). cDNA was synthesised from equivalent amounts of total RNA using SuperScript® III Reverse Transcriptase (invitrogen) and 18-mer oligo dTs (Eurofins MWG Operon).
# as §3
# tenascin-C = assay: siRNA mediated knockdown of tenascin-C expression in RA synovial fibroblasts; assay type: cell-based, human; settings: 10 nM siRNA, compared to luciferase siRNA control
# Description: as §8
# siRNA sequences of s7069 are: (sense 5′ […]tt 3′, antisense 5′ […]tc 3′) and of s229491 are (5′ […]tt 3′, antisense 5′ […]gg 3′). siRNA against luciferase (Dharmacon) was transfected as a non-targeting control.
# Four hours after transfection, medium was changed with pre-equilibrated Dulbecco's modified Eagle's medium containing 10% FBS (v/v) and cells were incubated for a further 48 h and 72 h. Cells were then stimulated with 10 ng/ml LPS for 24 h at 37° C. Tenascin-C mRNA and protein levels were quantitated by PCR and western blotting respectively. […]
# Gene expression was analysed by delta-delta ct methods based on quantitative real-time PCR with TaqMan primer set human tenascin-C(Hs01115663-ml) and human ribosomal protein endogenous control (RPLPO) (4310879E) (Applied Biosystems) in a Corbett Rotor-gene 6000 machine (Corbett Research Ltd). Tenascin-C protein was detected in cell supernatants and cell lysates by SDS PAGE and western blotting using antibody MAB1908 (Millipore).
molecule,measurement,setting,value
TIGLLYPFPKDCSQAMLNGDTTSGLYTIYL [Peptide 1],cytokine synthesis (induction),[1],induced cytokine synthesis in a dose dependent manner
Pam3Cys-Ser-Lys4 [reference compound],cytokine synthesis in embryonic fibroblasts with targeted deletion of MyD88,[2],abolished
same,cytokine synthesis in cells from TLR2 deficient mice,[3],unresponsive
same,cytokine synthesis in cells from TLR4 deficient mice,[3],did respond
TNF-α [reference compound],cytokine synthesis in embryonic fibroblasts with targeted deletion of MyD88,[2],unaffected
tenascin-C: recombinant full-length human tenascin-C purified from HEK293 conditioned medium,"production of TNF-α, IL-6 and IL-8 in human macrophages","[4]; 1.0 μM-1.0 nM, 24 h",dose dependently stimulated
same,cytokine stimulation: heat sensitivity and effect of polymyxin B,"[4]; boiled 15 minutes, 25 μg/ml polymyxin B pre-incubation, human macrophages and synovial fibroblasts","heat sensitive and unaffected by the LPS inhibitor, polymyxin B"
same,TNF-α synthesis in fibroblasts,RA synovial fibroblasts [5],Neither LPS nor tenascin-C induced
same,IL-6 synthesis in RA synovial fibroblasts,RA synovial fibroblasts [5]; LPS 10 ng/ml,only induced IL-6 synthesis
same,IL-8 synthesis in RA synovial fibroblasts,RA synovial fibroblasts [5]; LPS 10 ng/ml,only induced IL-6 synthesis
ELRVDLRDHGETAFAVYDKFSVGDAKTRYK [Peptide 5],cytokine synthesis (induction),[1],induced cytokine synthesis in a dose dependent manner
same,effect on TNF synthesis,"RA membrane cells; RA membrane cells, 24 h",no effect
same,maximal inhibition of IL8 synthesis,"RA membrane cells; RA membrane cells, dose dependent",81%
same,FBG mediated cytokine synthesis (block),human macrophages,specifically blocked
WYRNCHRVNLMGRYGDNNHSQGVNWFHWKG [Peptide 8],inhibition of cytokine synthesis,RA membrane cells,56%
same,TNF and IL8 synthesis (inhibition),RA membrane cells,inhibited
same,cytokine synthesis in response to LPS (block),human macrophages; then 1 ng/ml LPS 24 h,blocked
same,FBG mediated cytokine synthesis (block),human macrophages,blocked
IL-1 receptor antagonist: IL-1 receptor antagonist from R&D Systems,inhibition of FBG induction of cytokines,[6],did not inhibit
WIVFLRRKNGRENFYQNWKAYAAGFGDRRE [Peptide 3],inhibition of cytokine synthesis,RA membrane cells,95%
same,TNF and IL8 synthesis (inhibition),RA membrane cells,inhibited
KTRYKLKVEGYSGTAGDSMAYHNGRSFST [Peptide 6],cytokine synthesis (induction),[1],induced cytokine synthesis in a dose dependent manner
B1,inhibition of LPS induced cytokine production,RA synovial fibroblasts [7]; 10 ng/ml LPS 24 h,44%
same,inhibition of basal level of cytokine synthesis,RA synovial fibroblasts [7],38%
same,"knockdown of tenascin-C expression, maximal efficiency",tenascin-C,94-96%
B2,cytokine synthesis in embryonic fibroblasts with targeted deletion of MyD88,[2],abolished
same,cytokine synthesis in cells from TLR2 deficient mice,[3],responsive
same,cytokine synthesis in cells from TLR4 deficient mice,[3],did respond
